# Laboratory results reported in patent US11730703B2, “Nanoparticles for treatment of posterior segment ocular diseases and conditions” (UNIVERSITY OF SOUTH FLORIDA, priority 2017, dated 2023).
# Columns and labels:
# [1] = In vitro drug release (dialysis membrane tubing, PBS); type: physicochemical; conditions: FIG. 5
# Protocol: (iii) In vitro Drug Release: The rate of TA release from the NPs was measured by adapting a previously reported method. 40 Dialysis membrane tubing, MWCO 10 000 Da. (Spectrum Laboratories, Rancho Dominguez, Calif.) was soaked in deionized H2O overnight. 1 ml of the NP suspension was added to the dialysis membrane tubing after being briefly sonicated and was placed into 100 ml of PBS covered and stirring at 100 rpm at 37° C. 1 mL samples were removed at predetermined intervals over 10 days and replaced with fresh PBS. Samples were analyzed using UV spectroscopy at a wavelength of 240 nm (lmax) and compared to standard dilutions of TA in PBS (r^2=0.989) to determine the percentage of drug released over 10 days.
# 500 μL of 1 mg/mL DIG sol and 500 μL of DIG NPs in (cellulose) dialysis membrane tubing
# Samples were taken in 750 μL increments and the respective amount of PBS was re-added
# ARPE-19 cells = experiment: Cytotoxicity, MTT assay; type: cell-based, human; conditions: FIG. 6
# Protocol: (iv) Cytotoxicity: The cytotoxicity of the TA Nanoparticles was assessed in ARPE-19 cells (cells of a human retinal pigment epithelial cell line) by the 3-(4,5-dimethylthiazol-2-yl)-2,5-diphenyltetrazolium bromide salt (MTT) assay. Briefly, cells were seeded in 24-well plates at a density of 5×10^4 cells/ml for 24 h to achieve confluency before treatment. […] Cell culture media were aspirated, and […] of MTT reagent solution (1 mg/ml) was added to each well. Cells were incubated at 37° C. and 5% CO2 for 4 h, after which the MTT reagent solution was aspirated and 1 mL of DMSO was added to each well. Plates were allowed to shake gently for 10 min before being read by Synergy H4 plate reader (Biotek Industries, Inc., Winooski, Vt.) at absorbance of 570 nm.
# Media was removed and cells were washed with 500 μL of HBSS prior to treatment.
# Cell Treatments • 3 control wells with 500 μL Experimental Media only • 3 wells with DIG sol at 0.5 μM and 1 μM concentrations: (0.5 μM: 9.76 μL DIG sol+490.24 μL Exp. Media) • (1 μM: 19.52 μL DIG sol+480.48 μL Exp. Media) • 3 wells with DIG NPs at 0.5 μM and 1 μM concentrations: (0.5 μM: 1.012 μL DIG NPs+[…] Exp. Media) • (1 μM: 2.024 μL DIG NPs+497.97 μL Exp. Media)
# MTT Cell treatments: same as above w/o CoCl2 step
# Prepare MTT reagent: 0.5 mg/mL (in basal media) and cover with aluminum foil
# Remove media from each well and wash with HBSS […]
structure (smiles),measurement,setting,value
C[C@H]1O[C@@H](O[C@H]2[C@@H](O)C[C@H](O[C@H]3[C@@H](O)C[C@H](O[C@H]4CC[C@@]5(C)[C@H](CC[C@@H]6[C@@H]5C[C@@H](O)[C@]5(C)[C@@H](C7=CC(=O)OC7)CC[C@]65O)C4)O[C@@H]3C)O[C@@H]2C)C[C@H](O)[C@@H]1O [digoxin],Drug release (in words),[1],sustained therapeutic release
same,Cell toxicity (in words),ARPE-19 cells,relatively low cell toxicity
